This note sets out measurements from PubChem BioAssay (NCI).

Test systems include BT-549 breast; EKVX NSCLC; HOP-62 NSCLC; MCF7 breast; MDA-MB-231 breast; OVCAR-4 ovarian; RXF 393 renal; SK-MEL-5 melanoma; SNB-19 CNS; UACC-62 melanoma.
Test in all cases: NCI tumour cell line growth inhibition, 48 h

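These data come from cells grown in 96-well plates and exposed to compound for 48 hours at five concentrations. GI50 is the concentration that inhibits growth by half. Definition used: TGI = concentration required for complete inhibition of growth.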

With `COC(=O)CC1(O)C=CC(=O)C=C1`, the TGI in the assay on BT-549 breast was determined as 18.1 µM; in the assay on EKVX NSCLC it was 15.5 µM; in the assay with HOP-62 NSCLC, 18.1 µM; in the assay on MCF7 breast, 15.2 µM; with MDA-MB-231 breast it was 6.51 µM; in the assay with OVCAR-4 ovarian, 11.6 µM. The TGI in the assay with RXF 393 renal was found to be 17.9 µM; in the assay on SK-MEL-5 melanoma, 10.3 µM; with SNB-19 CNS, 21.3 µM; with UACC-62 melanoma it was 5 µM.
For the molecule `O=C1CS/C(=N/S(=O)(=O)c2ccc(N3N=C4c5ccccc5CC4C3c3cccs3)cc2)N1C(=O)c1ccccc1` (configuration not stated), the GI50 in the assay on BT-549 breast was 33.5 µM; with EKVX NSCLC it was 42.4 µM; in the assay with HOP-62 NSCLC, 32.9 µM; with MCF7 breast it was more than 100 µM; in the assay with MDA-MB-231 breast it was 44.6 µM; with OVCAR-4 ovarian, more than 100 µM. Moreover, the GI50 in the assay with RXF 393 renal was 90.7 µM; in the assay on SK-MEL-5 melanoma, 22.7 µM; in the assay on SNB-19 CNS, 77 µM; in the assay on UACC-62 melanoma, 23.2 µM. Moreover, the TGI is more than 100 µM in the assay on BT-549 breast; more than 100 µM with EKVX NSCLC; 63 µM in the assay with HOP-62 NSCLC; more than 100 µM with MCF7 breast; more than 100 µM in the assay with MDA-MB-231 breast; more than 100 µM in the assay with OVCAR-4 ovarian. The TGI in the assay with RXF 393 renal was more than 100 µM; with SK-MEL-5 melanoma, 69.6 µM; with SNB-19 CNS it was more than 100 µM; with UACC-62 melanoma, 58.4 µM.
`CCCCC#Cc1c(I)n(C2OC(CO[Si](C)(C)C(C)(C)C)C3OC(C)(C)OC32)c(=O)n(C(=O)c2ccccc2)c1=O` (configuration not stated): the GI50 with BT-549 breast is 8.98 µM; in the assay with EKVX NSCLC, 18.5 µM; with HOP-62 NSCLC it was 10.7 µM; in the assay with MCF7 breast it was 2.14 µM; in the assay on MDA-MB-231 breast, 17.7 µM; with OVCAR-4 ovarian it was 14 µM. Further, the GI50 is 11 µM with RXF 393 renal, 14.2 µM in the assay with SK-MEL-5 melanoma, 14.1 µM in the assay with SNB-19 CNS and 17.7 µM in the assay on UACC-62 melanoma. For the same molecule, the TGI worked out at 20.4 µM with BT-549 breast; 38.9 µM in the assay on EKVX NSCLC; 23 µM in the assay with HOP-62 NSCLC; 5.59 µM in the assay on MCF7 breast; 37.7 µM in the assay on MDA-MB-231 breast; 27.2 µM with OVCAR-4 ovarian. Further, the TGI turned out to be 23.9 µM in the assay on RXF 393 renal, 27.2 µM in the assay with SK-MEL-5 melanoma, 28.4 µM with SNB-19 CNS and 32.2 µM in the assay with UACC-62 melanoma.
In the case of `OCCCCC#Cc1ccccc1C#Cc1cccnc1`, the GI50 is 28.4 µM with BT-549 breast; 41.7 µM with EKVX NSCLC; 20 µM with HOP-62 NSCLC; 67.5 µM in the assay on MCF7 breast; 22.4 µM in the assay on MDA-MB-231 breast; 26.5 µM in the assay on OVCAR-4 ovarian. The GI50 in the assay on RXF 393 renal was 5.95 µM; in the assay on SK-MEL-5 melanoma, 54.8 µM; in the assay on SNB-19 CNS, 49.3 µM; in the assay on UACC-62 melanoma, 35.2 µM. The TGI in the assay with BT-549 breast is more than 100 µM; in the assay on EKVX NSCLC it was more than 100 µM; with HOP-62 NSCLC it was 57.4 µM; in the assay with MCF7 breast it was more than 100 µM; with MDA-MB-231 breast, 69.7 µM; in the assay on OVCAR-4 ovarian, more than 100 µM. For the same molecule, the TGI in the assay with RXF 393 renal was 28.6 µM; in the assay on SK-MEL-5 melanoma, more than 100 µM; in the assay with SNB-19 CNS, more than 100 µM; with UACC-62 melanoma, more than 100 µM.
On to `C=C(C)[C@@H]1CCc2c(O)c(O)c(=O)cc(C)c2C1`, for which the TGI with BT-549 breast is more than 100 µM; in the assay on EKVX NSCLC, more than 100 µM; with MCF7 breast, 20.7 µM; in the assay on MDA-MB-231 breast it was more than 100 µM; in the assay on OVCAR-4 ovarian, more than 100 µM; in the assay with RXF 393 renal, more than 21.2 µM. The TGI in the assay on SK-MEL-5 melanoma is 3.49 µM; in the assay with SNB-19 CNS, more than 100 µM; in the assay on UACC-62 melanoma, 48.3 µM.
In the case of `CC12OC(C(=O)C13CC3)C1C(=O)c3c(O)ccc(O)c3C(=O)C12` (configuration not stated), the GI50 in the assay on BT-549 breast was 22.1 µM; with EKVX NSCLC, 12.1 µM; in the assay with HOP-62 NSCLC, 21.3 µM; in the assay with MCF7 breast, 11.2 µM; in the assay with MDA-MB-231 breast it was 24.6 µM; with RXF 393 renal, 16.7 µM. In addition, the GI50 in the assay on SNB-19 CNS was 28.9 µM. For the same molecule, the TGI with BT-549 breast was 51.8 µM; in the assay with EKVX NSCLC, 48.3 µM; with HOP-62 NSCLC, 60.5 µM; in the assay with MCF7 breast, 26.3 µM; with MDA-MB-231 breast it was 46.6 µM; with RXF 393 renal, 37.6 µM. For the same molecule, the TGI in the assay on SNB-19 CNS was more than 100 µM.
For the molecule `CC1CCCC(C#N)(NOC2=NCCN2)C1` (configuration not stated), the GI50 was 19 µM with BT-549 breast; 0.0758 µM with EKVX NSCLC; 42.2 µM in the assay on MCF7 breast; 19.4 µM in the assay with MDA-MB-231 breast; 48.3 µM with OVCAR-4 ovarian; 65.1 µM in the assay with RXF 393 renal. Further, the figures for the GI50 in the assay on SK-MEL-5 melanoma, in the assay with SNB-19 CNS and with UACC-62 melanoma were 14.9 µM, more than 100 µM and 26.4 µM, respectively. Also, the TGI is 42.3 µM in the assay on BT-549 breast; 28.2 µM with EKVX NSCLC; more than 100 µM in the assay with MCF7 breast; more than 100 µM in the assay with MDA-MB-231 breast; more than 100 µM in the assay with OVCAR-4 ovarian; more than 100 µM in the assay on RXF 393 renal. The TGI in the assay with SK-MEL-5 melanoma was 34.2 µM; in the assay with SNB-19 CNS it was more than 100 µM; in the assay with UACC-62 melanoma, 94.8 µM.
Take `Fc1ccc2c(c1)C1=C(CCC2)C(c2ccc(Cl)cc2)NC(=S)N1` (configuration not stated): the GI50 was more than 100 µM in the assay with BT-549 breast; 32.8 µM in the assay on EKVX NSCLC; 26.6 µM in the assay with MCF7 breast; 24.2 µM in the assay on MDA-MB-231 breast; 44.8 µM with OVCAR-4 ovarian; 81.4 µM with RXF 393 renal. The GI50 is 28.4 µM with SK-MEL-5 melanoma, 77.9 µM in the assay on SNB-19 CNS and 33.6 µM in the assay on UACC-62 melanoma. In addition, the TGI with BT-549 breast, in the assay on EKVX NSCLC, in the assay on MCF7 breast, in the assay with MDA-MB-231 breast, in the assay on OVCAR-4 ovarian and with RXF 393 renal was more than 100 µM throughout. The TGI in the assay with SK-MEL-5 melanoma, in the assay on SNB-19 CNS and with UACC-62 melanoma was more than 100 µM each time.
Consider `CN1CCN(CCCOc2ccc3nc(Nc4ccc(F)c(F)c4)ccc3c2)CC1`, for which the GI50 with BT-549 breast was 2.34 µM; with EKVX NSCLC, 3.17 µM; in the assay with HOP-62 NSCLC, 1.86 µM; in the assay with MCF7 breast, 1.66 µM; with MDA-MB-231 breast, 1.63 µM; in the assay with OVCAR-4 ovarian it was 2.84 µM. The GI50 with RXF 393 renal was 1.52 µM; with SK-MEL-5 melanoma, 1.47 µM; in the assay on SNB-19 CNS, 2.08 µM. The TGI came out at 9.86 µM in the assay on BT-549 breast; 13.1 µM in the assay on EKVX NSCLC; 3.88 µM in the assay on HOP-62 NSCLC; 3.53 µM in the assay with MCF7 breast; 3.57 µM in the assay on MDA-MB-231 breast; 14.9 µM in the assay with OVCAR-4 ovarian. Further, the TGI in the assay with RXF 393 renal was 4.36 µM; in the assay with SK-MEL-5 melanoma it was 2.88 µM; in the assay on SNB-19 CNS, 4.79 µM.
